Measurements from patent US9259432B1, “Composition and methods for targeted delivery of a therapeutic compound to the brain or spinal cord of a subject for treatment of neurodegenerative diseases” (Parminder J. S. Vig, priority 2011, dated 2016).

Test system: differentiated GFP-ATXN1[82Q] SHSY5Y cells
Assay: Oxyblot of S100B induced oxidized proteins
Format: cell-based
Conditions: 50 μM pretreatment 1 hr, then 5 μM S100B 2 hrs; oxidized protein/β-tubulin
Method: FIG. 16: (a) GFP-ATXN1[82Q] and (b) GFP-ATXN1[30Q] SHSY5Y stable cells were placed on 12-well plates and subjected to treatment with 25 nM TPA for 3 days to produce differentiated SHSY5Y cell lines. Next, the cells were pretreated with 50 μM Synb1-ELP-TRTK for 1 hr then treated with 5 μM S100B for 2 hrs or treated with 150 μM H2O2 for 2 hrs, where control cells were treated with serum free media for 3 hrs. Then the cells were lysed and analyzed with the Oxyblot kit and a β-tubulin antibody. Shown is the resulting oxyblot/western blot data. (c) Optical densities of the protein bands were taken using ImageJ software. Graphs shown the ratio of oxidized protein/β-tubulin protein normalized to the control. Statistics were taken using the student's t-test. * GFP-ATXN1[82Q]: S100B vs Synb1-ELP-TRTK+S100B, P<0.05. ψ GFP-ATXN1[82Q]: H2O2 vs GFP-ATXN1[30Q]: H2O2, P<0.05.
GFP-ATXN1[82Q] or GFP-ATXN1[30Q] stable cells were placed on 12-well plates at a concentration of 60,000 cells per well. Cells were treated with 25 nM TPA for 3 days to produce differentiated SHSY5Y cell lines. […] Cell lysates were analyzed with the Oxyblot kit according to manufacturer's protocol ([…]) and with a β-tubulin antibody (Sigma), where 5 μgs of protein was loaded in each well of 4-20% acrylamide gel (Bio-Rad Laboratories, Hercules, Calif., USA). […]

For “Synb1-ELP-TRTK: thermally responsive S100B inhibitory polypeptide: Synb1 cell penetrating peptide, elastin-like polypeptide (ELP) and TRTK12 peptide fused”, the “S100B's impact on the level of oxidized proteins” value was “significantly blocked”.
